Laboratory results published in article PMC11067750, “Biophysical and structural study of La Crosse virus endonuclease inhibition for the development of new antiviral options” (IUCrJ, 2024).
Several values for one entry are separate records, joined by “and”; a condition that tells them apart may be missing. Identical values can stand only once. Like-named read-outs stand apart in the source and are kept apart here.

Columns and labels:
LACV EndoN [1] = target: T1, LACV EndoN (Bunyavirus La Crosse, UniProt A5HC98); assay type: binding, La Crosse virus; settings: for Stability ΔT m: 50 µM compound, 5 µM protein, baseline LACV EndoN in the presence of manganese (T m ≃ 56°C); for greater stabilization compared with DPBA: difference in ΔT m versus DPBA, with 0.5 mM MnCl2
Description: The influence of compound binding on the stability of LACV EndoN was measured by a Thermofluor assay using a CFX Connect Bio-Rad real-time PCR machine at a protein concentration of 5 µM in a buffer consisting of 20 mM Tris–HCl pH 7.6, 150 mM NaCl, 2.5 mM β-mercaptoethanol supplemented with 0.5 mM freshly prepared MnCl2. The compound concentration was fixed at 50 µM (5% DMSO). In 96-well thin-walled PCR plates, 1 µl inhibitor was added to 17 µl buffer followed by the addition of 2 µl protein. Finally, 2 µl of the fluorescent dye SYPRO Orange (Thermo Fisher, catalog No. 4461146) was added (a fivefold final concentration). Controls were performed using the same protocol without MnCl2. The melting-temperature (T m) values given are the average and standard deviation of three independent experiments.
DSF is used to assess protein stabilization or destabilization upon the addition of cofactors by measuring the thermal stability (the thermal melting transition T m) arising from interaction with a fluorescent dye (SYPRO Orange) during denaturation.
(c) Structures of the studied ligands.
Target sequence in this assay (A5HC98 1-183): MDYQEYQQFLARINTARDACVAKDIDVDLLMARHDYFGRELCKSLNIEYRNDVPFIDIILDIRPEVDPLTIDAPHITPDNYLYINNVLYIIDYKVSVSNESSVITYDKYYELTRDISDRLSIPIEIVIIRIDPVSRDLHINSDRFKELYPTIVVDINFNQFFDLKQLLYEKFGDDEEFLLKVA

LCMV EndoN = settings: ref Saez-Ayala et al., 2018, 2019; cited from earlier work
LACV EndoN [2] = target: T1, LACV EndoN; test: Microscale thermophoresis (MST) binding affinity; set-up: species or system La Crosse virus; settings: for Kd: Affinity K d, labelled protein 50 or 100 nM, 0.5 mM MnCl2, 5% DMSO, n = 3; for fold better affinity than DPBA: ratio of K d values versus DPBA
Target sequence in this assay (A5HC98 1-185): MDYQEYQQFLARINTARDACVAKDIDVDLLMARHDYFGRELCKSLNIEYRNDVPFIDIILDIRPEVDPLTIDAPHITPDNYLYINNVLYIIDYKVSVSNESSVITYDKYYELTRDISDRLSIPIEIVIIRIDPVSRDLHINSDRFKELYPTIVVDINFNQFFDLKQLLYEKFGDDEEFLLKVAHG

LACV EndoN [3] = target: T1, LACV EndoN; test: In vitro endonuclease FRET assay; assay type: biochemical, La Crosse virus; settings: for fold greater inhibition efficiency than DPBA: ratio of IC50 values versus DPBA
Description: An in vitro endonuclease assay was used to investigate the inhibition of LACV EndoN by DPBA, L-742,001 and baloxavir. The reaction was conducted using a 20 µl sample in 20 mM Tris pH 7.6, 150 mM NaCl, 0.01% Tween 20, 1 mM DTT and was supplemented with 1 mM freshly prepared MnCl2. The 19-mer RNA at a concentration of 50 nM and a gradient concentration of inhibitor (from 0.004 to 100 µM) were pre-incubated at 25°C in the reaction buffer. The reaction was started upon the addition of LACV EndoN (pre-mixed with 1 mM MnCl2 and pre-incubated at 25°C for 5 min) at a final concentration of 0.25 µM. Fluorescence upon RNA cleavage was followed in a PHERAstar FSX microplate reader (BMG Labtech, Germany) at 25°C using wavelengths of 465 nm for excitation and 520 nm for emission.
The inhibition efficacies of the three ligands were tested against LACV EndoN in an endonuclease FRET assay and the results are summarized in Table 2 ▸. This was performed following the cleavage of a 19-mer RNA labelled with a 5′ fluorescent probe (6-FAM) and a 3′ quencher (BHQ1) in the presence of a range of ligand concentrations upon the addition of 0.25 µM LACV EndoN. In this FRET inhibition assay, the order in which the three partners of the catalytic complex (protein, ions and substrate RNA) are introduced is decisive. The reaction is triggered by adding the protein pre-incubated with ions to a mixture containing substrate RNA, ions and ligand. The design of the assay may constitute a limitation to the complete assessment of the binding efficiency of baloxavir to the enzyme, given the competition between substrate RNA, free ions and ligand. As described for FLUV, baloxavir is a tight-binding inhibitor with slow dissociation and acts by preventing binding of the RNA substrate (Omoto et al., 2018[▸]; Todd et al., 2021[▸]). In the context of the current biochemical assay, the interplay between the RNA substrate and the ligand presents an unfavourable scenario for binding of the metal-chelating ligand. […] This unexpected uniformity of the inhibition values underscores the remarkable potency of these compounds in the face of a challenging biochemical landscape.
Target sequence in this assay (A5HC98 1-185): as above

FLUV PA-Nter = target: FLUV PA-Nter; set-up: method as in DuBois et al., 2012; settings: ref DuBois et al., 2012; cited from earlier work

Structure (SMILES)	T m increase upon addition of metal ions (LACV EndoN [1]; 0.5 mM MnCl2, versus LACV EndoN without ions (T m of 49°C)) [°C]	Kd (LCMV EndoN) [nM]	Kd (LACV EndoN [2])	IC50 (LACV EndoN [3]) [nM]	Kd (FLUV PA-Nter) [nM]	fold better affinity than DPBA (LACV EndoN [2])	fold greater inhibition efficiency than DPBA (LACV EndoN [3])	Stability ΔT m (LACV EndoN [1]; 0.5 mM MnCl2)	Stability ΔT m (LACV EndoN [1]; 0.5 mM MnCl2, listed as baloxavir) [°C]	greater stabilization compared with DPBA (LACV EndoN [1])
[Cl][Mn][Cl] [MnCl2]	~7	–	–	–	–	–	–	–	–	–
O=C(O)C(=O)CC(=O)c1ccccc1 [DPBA, 2,4-Dioxo-4-phenylbutanoic acid]	–	5400	1350 ± 250 nM	990 ± 60	4500	–	–	–	–	–
O=C1c2c(O)c(=O)ccn2N([C@@H]2c3ccccc3SCc3c2ccc(F)c3F)[C@@H]2COCCN12 [Baloxavir, (R)-12-((S)-7,8-Difluoro-6,11-dihydrodibenzo[b,e]thiepin-11-yl)-7-hydroxy-3,4,12,12a-tetrahydro-1H-[1,4]oxazino[3,4-c]pyrido[2,1-f][1,2,4]triazine-6,8-dione]	–	–	19 ± 6 nM	340 ± 20	–	68 fold	threefold	+12.72 ± 0.18 °C	~13	+6 °C
O=C(O)/C(O)=C/C(=O)C1(Cc2ccc(Cl)cc2)CCN(Cc2ccccc2)CC1 [L-742,001, (Z)-4-{1-benzyl-4-[(4-chlorophenyl)methyl]-piperidin-4-yl}-2-hydroxy-4-oxobut-2-enoic acid]	–	–	600 nM and 614 nM	650 ± 30	–	twofold	1.5 fold	–	–	+4 °C
